From PMC12406253, “Exploration of the Neuromodulatory Properties of Fyn and GSK-3β Kinases Exploiting 7‑Azaindole-Based Inhibitors” (Journal of Medicinal Chemistry, 2025)

Experiments:
[1] = tested on: primary rat cerebellar granule neurons (CGNs); assay: Neurotoxicity, cell viability in CGNs (MTT); assay type: cell-based; conditions: 5, 10, and 25 μM, 24 h
Procedure: A preliminary cell viability assessment was conducted in primary rat cerebellar granule neurons (CGNs), which are considered a reliable model for studying cellular and molecular mechanisms of survival/apoptosis and neurodegeneration/neuroprotection.
Primary cerebellar granule cells were dissociated from cerebella and plated on 96-well plates, previously coated with 10 μg/mL poly-L-lysine, at a density of 1.2 × 10^5 cells/0.2 mL medium/well in BME supplemented with 10% heat-inactivated FBS (Life Technologies), 2 mmol/L glutamine, 100 μmol/L gentamicin sulfate, and 25 mM KCl (all from Sigma-Aldrich). Sixteen hours later, 10 μM cytosine arabinofuranoside (Sigma-Aldrich) was added to avoid glial proliferation. After 7 days in vitro, differentiated neurons were shifted to serum-free BME medium and exposed to increasing concentrations (5 μM, 10 μM, 25 μM) of compounds of interest for 24 h. Then, cell viability was evaluated through the MTT assay.
For MTT assay, thiazolyl blue was added to the culture medium at a final concentration of 0.1 mg/mL. Following a 20 min incubation at 37 °C in the dark, the MTT precipitate was dissolved in 0.1 M Tris–HCl pH 7.5 buffer containing 5% Triton X-100 (all from Sigma-Aldrich) and absorbance was read at 570 nm in a microplate spectrophotometric reader (Bio-Rad).

Abl(h) = target: T1, Abl(h) (Homo sapiens, UniProt P00519); assay: Eurofins KinaseProfiler radiometric kinase assay; assay type: biochemical; conditions: for Abl inhibition: 10 µM; for remaining activity at 10 µM: read-out: Abl(h) % Residual activity
T1 construct: purchased Eurofins KinaseProfiler (Eurofins Cerep)

ALK(h) = target: T2, ALK(h) (Homo sapiens, UniProt Q9UM73); assay: Eurofins KinaseProfiler radiometric kinase assay; assay type: biochemical; conditions: read-out: ALK(h) % Residual activity
T2 construct: purchased Eurofins KinaseProfiler (Eurofins Cerep)

ASK1(h) = target: T3, ASK1(h) (Homo sapiens, UniProt Q99683); assay: Eurofins KinaseProfiler radiometric kinase assay; assay type: biochemical; conditions: read-out: ASK1(h) % Residual activity
T3 construct: purchased Eurofins KinaseProfiler (Eurofins Cerep)

CDK2/cyclinA(h) = target: T4, CDK2/cyclinA(h) (Homo sapiens, UniProt P24941); assay: Eurofins KinaseProfiler radiometric kinase assay; assay type: biochemical; conditions: read-out: CDK2/cyclinA(h) % Residual activity
T4 construct: purchased Eurofins KinaseProfiler (Eurofins Cerep)

CDK9/cyclin T1(h) = target: T5, CDK9/cyclin T1(h) (Homo sapiens, UniProt P50750); assay: Eurofins KinaseProfiler radiometric kinase assay; assay type: biochemical; conditions: for remaining activity at 10 µM: read-out: CDK9/cyclin T1(h) % Residual activity
T5 construct: purchased Eurofins KinaseProfiler (Eurofins Cerep)

CHK1(h) = target: T6, CHK1(h) (Homo sapiens, UniProt O14757); assay: Eurofins KinaseProfiler radiometric kinase assay; assay type: biochemical; conditions: read-out: CHK1(h) % Residual activity
T6 construct: purchased Eurofins KinaseProfiler (Eurofins Cerep)

CK1γ1(h) = target: T7, CK1γ1(h) (Homo sapiens, UniProt Q9HCP0); assay: Eurofins KinaseProfiler radiometric kinase assay; assay type: biochemical; conditions: read-out: CK1γ1(h) % Residual activity
T7 construct: purchased Eurofins KinaseProfiler (Eurofins Cerep)

CK2α2(h) = target: T8, CK2α2(h) (Homo sapiens, UniProt P19784); assay: Eurofins KinaseProfiler radiometric kinase assay; assay type: biochemical; conditions: read-out: CK2α2(h) % Residual activity
T8 construct: purchased Eurofins KinaseProfiler (Eurofins Cerep)

EphA5(h) = target: T9, EphA5(h) (Homo sapiens, UniProt P54756); assay: Eurofins KinaseProfiler radiometric kinase assay; assay type: biochemical; conditions: read-out: EphA5(h) % Residual activity
T9 construct: purchased Eurofins KinaseProfiler (Eurofins Cerep)

IGF-1R(h) = target: T10, IGF-1R(h) (Homo sapiens, UniProt P08069); assay: Eurofins KinaseProfiler radiometric kinase assay; assay type: biochemical; conditions: read-out: IGF-1R(h) % Residual activity
T10 construct: purchased Eurofins KinaseProfiler (Eurofins Cerep)

JAK2(h) = target: T11, JAK2(h) (Homo sapiens, UniProt O60674); assay: Eurofins KinaseProfiler radiometric kinase assay; assay type: biochemical; conditions: read-out: JAK2(h) % Residual activity
T11 construct: purchased Eurofins KinaseProfiler (Eurofins Cerep)

KDR(h) = target: T12, KDR(h) (Homo sapiens, UniProt P35968); assay: Eurofins KinaseProfiler radiometric kinase assay; assay type: biochemical; conditions: read-out: KDR(h) % Residual activity
T12 construct: purchased Eurofins KinaseProfiler (Eurofins Cerep)

LOK(h) = target: T13, LOK(h) (Homo sapiens, UniProt O94804); assay: Eurofins KinaseProfiler radiometric kinase assay; assay type: biochemical; conditions: for LOK inhibition: 10 µM; for remaining activity at 10 µM: read-out: LOK(h) % Residual activity
T13 construct: purchased Eurofins KinaseProfiler (Eurofins Cerep)

Lyn(h) = target: T14, Lyn(h) (Homo sapiens, UniProt P07948); assay: Eurofins KinaseProfiler radiometric kinase assay; assay type: biochemical; conditions: for Lyn inhibition: 10 µM; for remaining activity at 10 µM: read-out: Lyn(h) % Residual activity
T14 construct: purchased Eurofins KinaseProfiler (Eurofins Cerep)

MLK1(h) = target: T15, MLK1(h) (Homo sapiens, UniProt P80192); assay: Eurofins KinaseProfiler radiometric kinase assay; assay type: biochemical; conditions: for remaining activity at 10 µM: read-out: MLK1(h) % Residual activity
T15 construct: purchased Eurofins KinaseProfiler (Eurofins Cerep)

Mnk2(h) = target: T16, Mnk2(h) (Homo sapiens, UniProt Q9HBH9); assay: Eurofins KinaseProfiler radiometric kinase assay; assay type: biochemical; conditions: read-out: Mnk2(h) % Residual activity
T16 construct: purchased Eurofins KinaseProfiler (Eurofins Cerep)

MSK2(h) = target: T17, MSK2(h) (Homo sapiens, UniProt O75676); assay: Eurofins KinaseProfiler radiometric kinase assay; assay type: biochemical; conditions: for remaining activity at 10 µM: read-out: MSK2(h) % Residual activity
T17 construct: purchased Eurofins KinaseProfiler (Eurofins Cerep)

MST1(h) = target: T18, MST1(h) (Homo sapiens, UniProt Q13043); assay: Eurofins KinaseProfiler radiometric kinase assay; assay type: biochemical; conditions: read-out: MST1(h) % Residual activity
T18 construct: purchased Eurofins KinaseProfiler (Eurofins Cerep)

PAK2(h) = target: T19, PAK2(h) (Homo sapiens, UniProt Q13177); assay: Eurofins KinaseProfiler radiometric kinase assay; assay type: biochemical; conditions: read-out: PAK2(h) % Residual activity
T19 construct: purchased Eurofins KinaseProfiler (Eurofins Cerep)

PDGFRβ(h) = target: T20, PDGFRβ(h) (Homo sapiens, UniProt P09619); assay: Eurofins KinaseProfiler radiometric kinase assay; assay type: biochemical; conditions: read-out: PDGFRβ(h) % Residual activity
T20 construct: purchased Eurofins KinaseProfiler (Eurofins Cerep)

PKBα(h) = target: T21, PKBα(h) (Homo sapiens, UniProt P31749); assay: Eurofins KinaseProfiler radiometric kinase assay; assay type: biochemical; conditions: read-out: PKBα(h) % Residual activity
T21 construct: purchased Eurofins KinaseProfiler (Eurofins Cerep)

PKCα(h) = target: T22, PKCα(h) (Homo sapiens, UniProt P17252); assay: Eurofins KinaseProfiler radiometric kinase assay; assay type: biochemical; conditions: read-out: PKCα(h) % Residual activity
T22 construct: purchased Eurofins KinaseProfiler (Eurofins Cerep)

Plk3(h) = target: T23, Plk3(h) (Homo sapiens, UniProt Q9H4B4); assay: Eurofins KinaseProfiler radiometric kinase assay; assay type: biochemical; conditions: read-out: Plk3(h) % Residual activity
T23 construct: purchased Eurofins KinaseProfiler (Eurofins Cerep)

PRAK(h) = target: T24, PRAK(h) (Homo sapiens, UniProt Q8IW41); assay: Eurofins KinaseProfiler radiometric kinase assay; assay type: biochemical; conditions: read-out: PRAK(h) % Residual activity
T24 construct: purchased Eurofins KinaseProfiler (Eurofins Cerep)

Rse(h) = target: T25, Rse(h) (Homo sapiens, UniProt Q06418); assay: Eurofins KinaseProfiler radiometric kinase assay; assay type: biochemical; conditions: read-out: Rse(h) % Residual activity
T25 construct: purchased Eurofins (Eurofins Cerep) KinaseProfiler

SRPK1(h) = target: T26, SRPK1(h) (Homo sapiens, UniProt Q96SB4); assay: Eurofins KinaseProfiler radiometric kinase assay; assay type: biochemical; conditions: read-out: SRPK1(h) % Residual activity
T26 construct: purchased Eurofins (Eurofins Cerep) KinaseProfiler

TAK1(h) = target: T27, TAK1(h) (Homo sapiens, UniProt O43318); assay: Eurofins KinaseProfiler radiometric kinase assay; assay type: biochemical; conditions: read-out: TAK1(h) % Residual activity
T27 construct: purchased Eurofins (Eurofins Cerep) KinaseProfiler

PI3 Kinase (p120γ)(h) = target: T28, PI3 Kinase (p120γ)(h) (Homo sapiens, UniProt P48736); assay: Eurofins KinaseProfiler radiometric kinase assay; assay type: biochemical; conditions: read-out: PI3 Kinase (p120γ)(h) % Residual activity
T28 construct: purchased Eurofins (Eurofins Cerep) KinaseProfiler

[2] = target: T29, PI3 Kinase (p110δ/p85α)(h) (Homo sapiens, UniProt O00329); assay: Eurofins KinaseProfiler radiometric kinase assay; assay type: biochemical; conditions: read-out: PI3 Kinase (p110δ/p85α)(h) % Residual activity
T29 construct: purchased Eurofins (Eurofins Cerep) KinaseProfiler

GSK3β(h) = GSK3β(h) (Homo sapiens, UniProt P49841); assay: Eurofins KinaseProfiler radiometric kinase assay; conditions: read-out: GSK3β(h) % Residual activity
[3] = tested on: immortalized murine microglia N9; assay: Immunomodulation in LPS-treated N9 microglia, Western blot of iNOS and TREM2; conditions: 2.5 and 5 μM; 100 ng/mL LPS, 24 h
Procedure: To gain a conclusive answer on the potential role of these kinase inhibitors in counteracting neuroinflammatory processes, after the verified induced astrocytic polarization, the ability of selected compounds to modulate inflammatory response was analyzed by favoring the immunomodulatory switch from neurotoxic M1 phenotype of microglia to phagocytic and neuroprotective M2 phenotype, evaluating inducible nitric oxide synthase (iNOS) and TREM2 as M1 and M2 markers (Figure ).
The microglial phenotype was evaluated through Western blot analysis of the pro-inflammatory iNOS and anti-inflammatory-TREM2 markers.

FYNα = FYNα (Homo sapiens, UniProt P06241); assay: Fyn kinetics, ATP competition (Lineweaver–Burk); conditions: 0.05 and 0.3 μM compound; ATP 1.5 to 24 μM

T15 sequence (P80192 whole entry): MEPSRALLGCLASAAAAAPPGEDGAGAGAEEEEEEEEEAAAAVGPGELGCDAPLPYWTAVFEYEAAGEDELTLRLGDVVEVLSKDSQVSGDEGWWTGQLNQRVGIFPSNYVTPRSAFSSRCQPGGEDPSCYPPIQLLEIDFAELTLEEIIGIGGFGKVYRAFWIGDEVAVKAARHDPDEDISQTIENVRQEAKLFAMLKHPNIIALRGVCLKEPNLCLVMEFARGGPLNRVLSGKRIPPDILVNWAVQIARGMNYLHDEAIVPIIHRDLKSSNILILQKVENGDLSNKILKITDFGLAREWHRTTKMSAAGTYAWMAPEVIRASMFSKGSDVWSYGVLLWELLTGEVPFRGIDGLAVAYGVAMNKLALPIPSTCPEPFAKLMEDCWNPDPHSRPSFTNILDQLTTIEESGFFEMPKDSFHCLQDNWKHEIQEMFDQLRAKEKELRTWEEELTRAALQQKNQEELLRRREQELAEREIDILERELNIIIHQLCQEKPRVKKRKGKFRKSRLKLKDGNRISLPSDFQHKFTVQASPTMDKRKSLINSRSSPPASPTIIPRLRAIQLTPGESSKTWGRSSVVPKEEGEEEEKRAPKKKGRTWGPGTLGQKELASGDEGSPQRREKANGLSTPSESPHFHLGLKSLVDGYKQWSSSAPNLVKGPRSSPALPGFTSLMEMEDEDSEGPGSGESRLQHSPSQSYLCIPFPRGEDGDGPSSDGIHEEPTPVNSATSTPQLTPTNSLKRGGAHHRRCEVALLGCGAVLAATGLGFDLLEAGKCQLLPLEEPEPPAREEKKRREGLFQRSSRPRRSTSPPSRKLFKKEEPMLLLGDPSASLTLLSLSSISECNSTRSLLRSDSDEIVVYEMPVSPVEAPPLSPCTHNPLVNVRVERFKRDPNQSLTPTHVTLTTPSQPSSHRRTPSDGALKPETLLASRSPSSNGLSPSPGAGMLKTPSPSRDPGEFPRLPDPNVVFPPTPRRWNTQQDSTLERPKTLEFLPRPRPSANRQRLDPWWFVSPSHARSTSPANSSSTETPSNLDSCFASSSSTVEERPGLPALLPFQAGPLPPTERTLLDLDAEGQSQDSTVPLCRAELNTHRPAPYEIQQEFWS
T17 sequence (O75676 whole entry): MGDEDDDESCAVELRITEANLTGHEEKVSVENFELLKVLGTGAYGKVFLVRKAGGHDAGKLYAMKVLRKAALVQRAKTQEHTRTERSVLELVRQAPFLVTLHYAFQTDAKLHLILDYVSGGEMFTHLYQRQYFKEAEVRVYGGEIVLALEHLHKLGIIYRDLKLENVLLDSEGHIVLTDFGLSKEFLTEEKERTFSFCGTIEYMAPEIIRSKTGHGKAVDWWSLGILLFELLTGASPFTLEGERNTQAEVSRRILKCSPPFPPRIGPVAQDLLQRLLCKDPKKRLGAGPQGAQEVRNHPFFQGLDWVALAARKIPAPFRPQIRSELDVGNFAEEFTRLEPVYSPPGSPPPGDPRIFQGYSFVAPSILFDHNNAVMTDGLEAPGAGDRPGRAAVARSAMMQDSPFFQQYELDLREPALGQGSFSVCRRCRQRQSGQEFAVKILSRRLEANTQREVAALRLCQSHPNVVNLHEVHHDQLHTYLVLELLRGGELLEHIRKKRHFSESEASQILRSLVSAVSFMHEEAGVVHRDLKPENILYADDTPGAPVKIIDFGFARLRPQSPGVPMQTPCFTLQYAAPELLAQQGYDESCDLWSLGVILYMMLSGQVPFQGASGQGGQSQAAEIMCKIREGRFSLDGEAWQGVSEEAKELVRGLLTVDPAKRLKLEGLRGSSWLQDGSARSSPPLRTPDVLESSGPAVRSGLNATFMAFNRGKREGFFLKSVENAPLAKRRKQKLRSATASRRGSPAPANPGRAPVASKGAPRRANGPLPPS
T1 sequence (P00519 whole entry): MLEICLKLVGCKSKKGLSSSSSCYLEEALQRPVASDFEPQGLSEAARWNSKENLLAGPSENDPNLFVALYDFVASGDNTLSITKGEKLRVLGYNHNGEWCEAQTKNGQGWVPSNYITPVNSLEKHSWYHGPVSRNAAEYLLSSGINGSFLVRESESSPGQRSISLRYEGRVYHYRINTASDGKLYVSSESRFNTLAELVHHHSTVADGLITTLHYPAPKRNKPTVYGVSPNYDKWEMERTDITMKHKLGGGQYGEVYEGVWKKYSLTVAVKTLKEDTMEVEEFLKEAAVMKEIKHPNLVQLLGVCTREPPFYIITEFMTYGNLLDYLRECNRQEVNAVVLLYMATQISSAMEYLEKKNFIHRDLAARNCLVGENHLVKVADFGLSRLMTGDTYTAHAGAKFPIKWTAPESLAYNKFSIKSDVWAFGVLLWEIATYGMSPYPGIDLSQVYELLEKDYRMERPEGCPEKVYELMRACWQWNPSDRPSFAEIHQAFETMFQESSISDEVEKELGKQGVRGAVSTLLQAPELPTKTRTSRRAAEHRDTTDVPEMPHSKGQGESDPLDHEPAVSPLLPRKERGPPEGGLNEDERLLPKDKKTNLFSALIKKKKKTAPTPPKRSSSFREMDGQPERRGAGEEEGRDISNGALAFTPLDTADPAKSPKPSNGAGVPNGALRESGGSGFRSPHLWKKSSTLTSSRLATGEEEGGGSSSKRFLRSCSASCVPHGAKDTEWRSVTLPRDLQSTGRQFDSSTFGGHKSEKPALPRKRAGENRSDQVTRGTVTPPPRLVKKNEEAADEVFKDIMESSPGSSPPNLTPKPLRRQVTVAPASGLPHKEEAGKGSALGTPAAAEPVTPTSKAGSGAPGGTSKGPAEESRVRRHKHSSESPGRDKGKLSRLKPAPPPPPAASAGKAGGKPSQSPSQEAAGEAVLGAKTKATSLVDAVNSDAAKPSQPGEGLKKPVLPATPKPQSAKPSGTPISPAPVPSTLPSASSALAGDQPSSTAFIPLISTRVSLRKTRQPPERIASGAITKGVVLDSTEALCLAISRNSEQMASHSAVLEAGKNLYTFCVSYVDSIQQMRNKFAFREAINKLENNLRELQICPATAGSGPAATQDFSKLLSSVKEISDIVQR
T13 sequence (O94804 whole entry): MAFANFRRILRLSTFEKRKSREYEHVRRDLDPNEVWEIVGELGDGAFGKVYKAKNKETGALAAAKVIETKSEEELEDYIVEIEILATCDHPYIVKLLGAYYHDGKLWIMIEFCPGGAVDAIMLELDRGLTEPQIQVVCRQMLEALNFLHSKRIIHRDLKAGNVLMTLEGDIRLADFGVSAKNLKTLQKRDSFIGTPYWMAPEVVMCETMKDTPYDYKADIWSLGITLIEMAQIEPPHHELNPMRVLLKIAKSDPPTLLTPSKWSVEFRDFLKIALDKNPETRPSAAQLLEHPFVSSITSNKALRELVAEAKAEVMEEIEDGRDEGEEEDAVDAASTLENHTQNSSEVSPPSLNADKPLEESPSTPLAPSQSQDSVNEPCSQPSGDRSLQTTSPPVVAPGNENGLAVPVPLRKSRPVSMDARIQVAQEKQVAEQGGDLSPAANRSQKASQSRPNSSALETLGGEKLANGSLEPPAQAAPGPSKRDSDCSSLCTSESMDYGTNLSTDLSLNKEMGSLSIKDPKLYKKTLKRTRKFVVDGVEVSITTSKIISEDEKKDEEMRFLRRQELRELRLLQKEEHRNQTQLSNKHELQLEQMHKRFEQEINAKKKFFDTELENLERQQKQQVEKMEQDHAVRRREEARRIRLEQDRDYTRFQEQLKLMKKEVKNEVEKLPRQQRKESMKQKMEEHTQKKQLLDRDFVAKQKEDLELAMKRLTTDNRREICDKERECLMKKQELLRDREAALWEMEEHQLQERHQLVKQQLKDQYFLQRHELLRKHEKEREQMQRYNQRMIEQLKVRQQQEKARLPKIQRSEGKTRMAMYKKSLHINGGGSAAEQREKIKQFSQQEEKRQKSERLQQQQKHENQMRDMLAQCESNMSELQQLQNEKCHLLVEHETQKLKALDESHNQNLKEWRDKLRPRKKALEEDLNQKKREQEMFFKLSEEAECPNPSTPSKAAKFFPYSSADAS
T14 sequence (P07948 whole entry): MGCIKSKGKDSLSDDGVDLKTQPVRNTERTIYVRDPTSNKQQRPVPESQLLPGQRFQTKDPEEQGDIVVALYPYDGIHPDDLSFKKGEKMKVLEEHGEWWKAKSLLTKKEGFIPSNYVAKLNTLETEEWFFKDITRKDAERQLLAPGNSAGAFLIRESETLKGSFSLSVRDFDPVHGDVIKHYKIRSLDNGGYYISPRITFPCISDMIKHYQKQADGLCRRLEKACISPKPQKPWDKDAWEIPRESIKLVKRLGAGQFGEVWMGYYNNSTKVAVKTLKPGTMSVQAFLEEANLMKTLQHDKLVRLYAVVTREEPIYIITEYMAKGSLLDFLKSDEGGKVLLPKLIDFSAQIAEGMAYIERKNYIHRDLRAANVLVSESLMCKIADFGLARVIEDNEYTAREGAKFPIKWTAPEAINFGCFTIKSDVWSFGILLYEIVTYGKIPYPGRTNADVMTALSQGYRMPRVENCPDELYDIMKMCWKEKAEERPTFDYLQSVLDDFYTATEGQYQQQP
T16 sequence (Q9HBH9 whole entry): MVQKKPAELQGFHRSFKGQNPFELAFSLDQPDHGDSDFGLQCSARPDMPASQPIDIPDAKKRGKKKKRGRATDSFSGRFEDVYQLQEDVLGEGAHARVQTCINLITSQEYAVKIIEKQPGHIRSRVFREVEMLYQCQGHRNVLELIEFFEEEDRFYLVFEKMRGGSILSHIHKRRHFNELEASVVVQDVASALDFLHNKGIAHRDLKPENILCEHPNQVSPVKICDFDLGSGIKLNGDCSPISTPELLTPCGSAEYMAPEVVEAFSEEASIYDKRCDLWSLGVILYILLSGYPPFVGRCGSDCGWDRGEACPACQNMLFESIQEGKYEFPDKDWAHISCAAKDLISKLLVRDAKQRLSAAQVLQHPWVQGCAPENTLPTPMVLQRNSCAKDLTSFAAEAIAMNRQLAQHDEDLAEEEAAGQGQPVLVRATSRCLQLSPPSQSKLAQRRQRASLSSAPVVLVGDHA

Br.Cc1sc(NCc2ccccc2)nc1-c1c[nH]c2ncc(Br)cc12 [Compound 41, N-Benzyl-4-(5-bromo-1H-pyrrolo[2,3-b]pyridin-3-yl)-5-methylthiazol-2-amine Hydrobromide]
Increase in registered cell viability in comparison to control [1]: amplified | Neurotoxicity on CGNs (cell viability compared to control) [1]: not neurotoxic | Abl inhibition (Abl(h)): completely inhibited | remaining activity at 10 µM (Abl(h)): 8% | remaining activity at 10 µM (ALK(h)): 38% | remaining activity at 10 µM (ASK1(h)): 72% | remaining activity at 10 µM (CDK2/cyclinA(h)): 27% | remaining activity at 10 µM (CDK9/cyclin T1(h)): 50% | remaining activity at 10 µM (CHK1(h)): 111% | remaining activity at 10 µM (CK1γ1(h)): 93% | remaining activity at 10 µM (CK2α2(h)): 83% | remaining activity at 10 µM (EphA5(h)): 93% | remaining activity at 10 µM (IGF-1R(h)): 83% | remaining activity at 10 µM (JAK2(h)): 26% | remaining activity at 10 µM (KDR(h)): 16% | LOK inhibition (LOK(h)): completely inhibited | remaining activity at 10 µM (LOK(h)): 4% | Lyn inhibition (Lyn(h)): completely inhibited | remaining activity at 10 µM (Lyn(h)): 1% | inhibition at 10 µM (MLK1(h)): > 90% | remaining activity at 10 µM (MLK1(h)): 8% | remaining activity at 10 µM (Mnk2(h)): 17% | remaining activity at 10 µM (MSK2(h)): 59% | remaining activity at 10 µM (MST1(h)): 16% | remaining activity at 10 µM (PAK2(h)): 75% | remaining activity at 10 µM (PDGFRβ(h)): 95% | remaining activity at 10 µM (PKBα(h)): 104% | remaining activity at 10 µM (PKCα(h)): 66% | remaining activity at 10 µM (Plk3(h)): 89% | remaining activity at 10 µM (PRAK(h)): 64% | remaining activity at 10 µM (Rse(h)): 34% | remaining activity at 10 µM (SRPK1(h)): 85% | remaining activity at 10 µM (TAK1(h)): 49% | remaining activity at 10 µM (PI3 Kinase (p120γ)(h)): 80% | remaining activity at 10 µM [2]: 66% | remaining activity at 10 µM (GSK3β(h)): 58% | TREM2 expression (M2 marker) vs LPS [3]: no significant variations | iNOS expression (M1 marker) vs LPS [3]: notably decreased the M1 marker at both tested concentrations

Br.Cc1sc(NCc2ccnc(Cl)c2)nc1-c1c[nH]c2ncccc12 [Compound 43, N-((2-Chloropyridin-4-yl)methyl)-5-methyl-4-(1H-pyrrolo[2,3-b]pyridin-3-yl)thiazol-2-amine Hydrobromide]
Increase in registered cell viability in comparison to control [1]: amplified | Neurotoxicity on CGNs (cell viability compared to control) [1]: not neurotoxic | Abl inhibition (Abl(h)): completely inhibited | remaining activity at 10 µM (Abl(h)): 6% | remaining activity at 10 µM (ALK(h)): 61% | remaining activity at 10 µM (ASK1(h)): 97% | remaining activity at 10 µM (CDK2/cyclinA(h)): 16% | inhibition at 10 µM (CDK9/cyclin T1(h)): > 90% | remaining activity at 10 µM (CDK9/cyclin T1(h)): 5% | remaining activity at 10 µM (CHK1(h)): 112% | remaining activity at 10 µM (CK1γ1(h)): 77% | remaining activity at 10 µM (CK2α2(h)): 100% | remaining activity at 10 µM (EphA5(h)): 103% | remaining activity at 10 µM (IGF-1R(h)): 68% | remaining activity at 10 µM (JAK2(h)): 46% | remaining activity at 10 µM (KDR(h)): 15% | LOK inhibition (LOK(h)): completely inhibited | remaining activity at 10 µM (LOK(h)): 4% | Lyn inhibition (Lyn(h)): completely inhibited | remaining activity at 10 µM (Lyn(h)): 1% | remaining activity at 10 µM (MLK1(h)): 12% | remaining activity at 10 µM (Mnk2(h)): 27% | inhibition at 10 µM (MSK2(h)): > 90% | remaining activity at 10 µM (MSK2(h)): 1% | remaining activity at 10 µM (MST1(h)): 14% | remaining activity at 10 µM (PAK2(h)): 72% | remaining activity at 10 µM (PDGFRβ(h)): 93% | remaining activity at 10 µM (PKBα(h)): 103% | remaining activity at 10 µM (PKCα(h)): 28% | remaining activity at 10 µM (Plk3(h)): 96% | remaining activity at 10 µM (PRAK(h)): 97% | remaining activity at 10 µM (Rse(h)): 98% | remaining activity at 10 µM (SRPK1(h)): 96% | remaining activity at 10 µM (TAK1(h)): 30% | remaining activity at 10 µM (PI3 Kinase (p120γ)(h)): 94% | remaining activity at 10 µM [2]: 97% | Mechanism of Fyn inhibition with respect to ATP (FYNα): competitive inhibition with respect to ATP | TREM2 expression (M2 marker) vs LPS [3]: no significant variations | iNOS expression (M1 marker) vs LPS [3]: significantly reduced the M1 marker only at the highest concentration
